Assay results taken from the OPERA property sets (Mansouri et al. 2018).

Row | logP | SMILES
1 | 2.2 | COc1ccccc1N1CCN(CCNC(=O)c2ccccc2)CC1
2 | 4.8 | COc1ccccc1N1CCN(CCCCc2ccc(F)cc2)CC1
3 | 1.2 | COc1ccccc1N1CCN(CCNC(=O)c2cccnc2)CC1
4 | 1.6 | COc1ccccc1N1CCN(CCNC(=O)c2ccc[nH]2)CC1
5 | 2.5 | COc1ccccc1N1CCN(CCNC(=O)c2ccc(F)cc2)CC1
6 | 1.6 | COc1ccccc1N1CCN(CCNC(=O)c2ccco2)CC1
7 | 3.6 | COc1ccccc1N1CCN(CCCC(=O)c2ccc(F)cc2)CC1

The remaining lines, values behind:

Row | SMILES | logP
8 | COc1ccccc1N1CCN(CCNC(=S)C2CCCCC2)CC1 | 3.7
9 | COc1ccccc1N1CCN(CCCOc2ccc(F)cc2)CC1 | 4.1
10 | COc1ccccc1N1CCN(CCNC(=N)C2CCCCC2)CC1 | 3.4
11 | COc1ccccc1N1CCN(CCNC(C)=O)CC1 | 0.5
12 | COc1ccccc1N1CCN(CCCC(O)c2ccc(F)cc2)CC1 (configuration not stated) | 3.4
13 | COc1ccccc1N1CCN(CCC=Cc2ccc(F)cc2)CC1 | 4.7
14 | COc1ccccc1N1CCN(CCOCc2ccc(F)cc2)CC1 | 3.6
15 | COc1ccccc1N1CCN(CCNC(=O)C2CCCCC2)CC1 | 2.8
16 | COc1ccccc1N1CCN(CCNC(=O)c2cccs2)CC1 | 2
17 | COc1ccccc1N1CCN(CCNC(=O)c2ccncn2)CC1 | 1.5
